In ChEMBL document CHEMBL4304800, “C4-Phenylthio β-lactams: Effect of the chirality of the β-lactam ring on antimicrobial activity” (2019):

How the values were obtained:
Assay type in all cases: functional
Details in all cases: 336 h
[1] = tested on: Mycobacterium tuberculosis; experiment: Antitubercular activity against multi-drug resistant Mycobacterium tuberculosis K25b00MR after 14 days in presence of middlebrook 7H9/BSA medium by eleven fold serial dilution method
[2] = tested on: Mycobacterium tuberculosis; experiment: Antitubercular activity against multi-drug resistant Mycobacterium tuberculosis K22b00MR after 14 days in presence of middlebrook 7H9/BSA medium by eleven fold serial dilution method
[3] = tested on: Mycobacterium tuberculosis; experiment: Antitubercular activity against multi-drug resistant Mycobacterium tuberculosis K29b00MR after 14 days in presence of middlebrook 7H9/BSA medium by eleven fold serial dilution method
[4] = tested on: Mycobacterium tuberculosis; experiment: Antitubercular activity against multi-drug resistant Mycobacterium tuberculosis K26b00MR after 14 days in presence of middlebrook 7H9/BSA medium by eleven fold serial dilution method

SMILES | MIC [1] [mg/L] | MIC [2] [mg/L] | MIC [3] [mg/L] | MIC [4] [mg/L]
O=C1CC(Sc2ccc(C(F)(F)F)cc2)N1C(=O)NCc1ccccc1 (racemic) | 25 | 12.5 | 25 | 12.5
C[C@H](NC(=O)N1C(=O)C[C@H]1Sc1ccc(F)cc1F)c1ccccc1 | 12.5 to 25 | 25 | 25 | 25 to 50
C[C@H](NC(=O)N1C(=O)C[C@@H]1Sc1ccc(C(F)(F)F)cc1)c1ccccc1 | 12.5 to 25 | 12.5 | 12.5 | 12.5
C[C@@H](NC(=O)N1C(=O)C[C@@H]1Sc1ccc(F)cc1F)c1ccccc1 | 12.5 | 12.5 | 12.5 | 25
C[C@@H](NC(=O)N1C(=O)C[C@H]1Sc1ccc(F)cc1F)c1ccccc1 | 12.5 | 12.5 | 12.5 | 12.5 to 25
NNC(=O)c1ccncc1 [ISONIAZID] | 1.3 | 0.6 | ≥ 1 | > 1
